Measurements published in patent US7732666B1, “O-methyltransferase gene from sorghum cloning, expression, transformation and characterization” (priority 2006, dated 2010).
Where two headings read alike, the source gives them in different places.

B1: SbOMT1 (Sorghum bicolor) (protein)
chain: MASYTSTSGQFAVGKVAAANQDDETCMHALKLLGGLAVPFTIKAVIELGIMDLLLAADRAMTAEALTAALLCPAPAPAAAAAMVDRMLRFLASHGVVRCATESEELGSDDGKSCRRYAAAPVCKWFARGGGVESVVPMGFWMTSTTNMETWHNIKDGVLAGETPFDKAYGMPVFEYLGANGTMNTLFNEAMASHSMIITKRLLEVFRGFENYSVLVDVGGGNGTTMQMIRSQYENISGINYDLPHVIAQASPIEGVEHVAGNMFDNIPRGDAIILKWILHNWGDKECVKILKNCYTALPVNGTVIILEYILPETPEETLASQLAFDFDLGMMLFFGASGKERTEKELLELAREAGFSGDYTATYIFANVWAHEFTK

Tests used:
[1] = system: Candida albicans, Cryptococcus neoformans, Staphylococcus aureus, and methicillin-resistant S. aureus; conditions: Rimando et al. 2003a; cited from earlier work
[2] = system: Phaeoacremonium aleophilum, Phaeomoniella chlamydospora, Libertella blepharis, Fomitiporia punctata and Stereum hirsutum; conditions: Mazzullo et al. 2000; cited from earlier work
SbOMT2 = target: T1, SbOMT2 (Sorghum bicolor, UniProt A8QW51); test: Reaction of recombinant SbOMT2 with resveratrol, GC-MS analysis; assay type: biochemical
T1 construct: full-length open reading frames for all three OMTs were overexpressed in E. coli as N-terminal polyhistidine fusions; polyhistidine (pET15b) (N); made in house; host or cells: E. coli BL21/DE3
T1 sequence (A8QW51 1-372): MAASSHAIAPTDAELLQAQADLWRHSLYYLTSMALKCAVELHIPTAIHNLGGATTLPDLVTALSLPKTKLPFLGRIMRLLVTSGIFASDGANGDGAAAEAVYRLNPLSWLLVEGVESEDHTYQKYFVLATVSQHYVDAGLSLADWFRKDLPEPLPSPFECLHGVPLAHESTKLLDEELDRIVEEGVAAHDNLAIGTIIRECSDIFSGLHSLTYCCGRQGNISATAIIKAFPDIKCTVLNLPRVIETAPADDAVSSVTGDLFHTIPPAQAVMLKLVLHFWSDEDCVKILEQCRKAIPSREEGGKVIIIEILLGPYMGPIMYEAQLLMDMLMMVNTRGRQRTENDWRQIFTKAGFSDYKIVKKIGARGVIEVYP
From the text: (§1) The products from these reactions were then chemically analyzed by gas chromatography/mass spectroscopy. […] Thus, only about 2% of the product obtained was pterostilbene; 88% was 3,5-dihydroxy-4′-methoxystilbene (FIG. 7B).

SbOMT1 [3] = target: T2, SbOMT1 (Sorghum bicolor, UniProt A8QW52); test: OMT enzymatic assay (radiometric, 14C-SAM) with recombinant SbOMT1; assay type: biochemical; conditions: relative to eugenol = 100%; 30 min at 30° C.
T2 construct: full-length open reading frames for all three OMTs were overexpressed in E. coli as N-terminal polyhistidine fusions; polyhistidine (pET15b) (N); made in house; host or cells: E. coli BL21/DE3
T2 sequence (A8QW52 1-376): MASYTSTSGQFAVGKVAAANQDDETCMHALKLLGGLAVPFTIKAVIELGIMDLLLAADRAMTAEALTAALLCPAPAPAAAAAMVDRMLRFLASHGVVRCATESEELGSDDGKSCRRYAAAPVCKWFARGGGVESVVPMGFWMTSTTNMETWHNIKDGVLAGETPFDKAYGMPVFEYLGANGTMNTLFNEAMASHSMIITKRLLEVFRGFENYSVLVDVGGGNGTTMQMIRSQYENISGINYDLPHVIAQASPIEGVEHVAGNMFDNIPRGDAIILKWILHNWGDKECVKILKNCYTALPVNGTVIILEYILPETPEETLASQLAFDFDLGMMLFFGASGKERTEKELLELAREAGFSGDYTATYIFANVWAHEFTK

SbOMT3 = target: T3, SbOMT3 (Sorghum bicolor, UniProt A8QW53, DUP296-296); assay type: biochemical; conditions: for Relative Activity (%) of Recombinant SbOMT3: relative to 5-n-pentyl-resorcinol = 100%, 30 min at 30° C.; for Km: recombinant SbOMT3, alkylresorcinols and co-substrate SAM
T3 construct: full-length open reading frames for all three OMTs were overexpressed in E. coli as N-terminal polyhistidine fusions; polyhistidine (pET15b) (N); made in house; host or cells: E. coli BL21/DE3
Experimental: (§2) Substrate specificities and kinetic parameters for recombinant OMTs were determined using to a modified protocol based on Wang and Pichersky (1999. Arch. Biochem. Biophys. 368: 172-180). All enzymatic assays consisted of 90 μL of assay buffer (250 mM Tris-HCl, pH 7.5, 10 mM DTT), 200 μL of purified enzyme preparation (200 μg protein/ml in), 5 μL of a 10 mM substrate stock solution (dissolved in 100% ethanol), and 5 μL of S-[methyl-^14C] adenosyl-L-methionine (40-60 mCi/mmol, 0.1 mCi/ml; ICN Biomedicals, Irvine, Calif.). Reactions were incubated for 30 min at 30° C. using a Thermomixer (Brinkman Instrument, Westbury, N.Y.), then quenched by addition of 25 μL of 6 N HCl. Radiolabeled products were subsequently extracted by the addition of 1 mL of hexane:ethyl acetate (1:1 vol/vol), and 300 μL of the (upper) organic phase were transferred to scintillation vials containing 5 mL of Ultima Gold scintillation fluid (Packard BioScience, Meriden, CT). Scintillation counts were performed using a Tri-Carb 1600TR Liquid Scintillation Analyzer (Packard BioScience). Protein concentrations and time points used for activity measurements were controlled to insure linearity of the assays. Kinetic parameters were determined from assays performed in triplicate as described above, but with substrate concentrations ranging from 10 μM to 10 mM. Data from enzyme kinetics experiments were fit to the Michaelis-Menten equation using the SigmaPlot v. 9.01 enzyme kinetics module (Systat Software, Inc., Point Richmond, Calif.).
(§3) A panel of benzene-derivatives containing different functional groups and substitution patterns were tested in enzyme assays with all three recombinant enzymes (Table 2), including a series of 5-n-alkylresorcinols of increasing chain length, as well as 5-n-pentadecatrienyl resorcinol, the proposed sorgoleone pathway intermediate and in vivo substrate for the participating OMT enzyme (FIG. 1). For these analyses, full-length open reading frames for all three OMTs were overexpressed in E. coli as N-terminal polyhistidine fusions, purified using an activated Ni-column, then radiometrically assayed in the presence of different substrates as described by Wang and Pichersky (1999, supra), with slight modifications.

[4] = system: human breast cancer and murine lymphoid neoplasma cell lines; conditions: cited from earlier work
CCCCCCCc1cc(O)cc(O)c1 = test: purified protein, by the assay type; assay type: biochemical, Sorghum bicolor; conditions: other: recombinant SbOMT3, alkylresorcinols and co-substrate SAM; pH 7.5; 30.0 °C
Experimental: as §2, §3

CCCCCCc1cc(O)cc(O)c1 = test: purified protein, by the assay type; assay type: biochemical, Sorghum bicolor; conditions: other: recombinant SbOMT3, alkylresorcinols and co-substrate SAM; pH 7.5; 30.0 °C
Experimental: as §2, §3

CCCCCc1cc(O)cc(O)c1 = test: purified protein, by the assay type; assay type: biochemical, Sorghum bicolor; conditions: other: recombinant SbOMT3, alkylresorcinols and co-substrate SAM; pH 7.5; 30.0 °C
Experimental: as §2, §3

CCCCc1cc(O)cc(O)c1 = test: purified protein, by the assay type; assay type: biochemical, Sorghum bicolor; conditions: other: recombinant SbOMT3, alkylresorcinols and co-substrate SAM; pH 7.5; 30.0 °C
Experimental: as §2, §3

SbOMT1 [5] = target: T2, SbOMT1; test: GC-MS analysis of products of recombinant SbOMT1 reacted with resveratrol; assay type: biochemical
From the text: as §1

[6] = substrate: Oc1ccc(C=Cc2cc(O)cc(O)c2)cc1; test: purified protein, by the assay type; conditions: other: recombinant SbOMT1, substrate resveratrol; pH 7.5; 30.0 °C
[7] = recombinant SbOMT3, alkylresorcinols

T3 sequence (A8QW53 other isoform, or with tags, fused parts or gaps DUP296-296): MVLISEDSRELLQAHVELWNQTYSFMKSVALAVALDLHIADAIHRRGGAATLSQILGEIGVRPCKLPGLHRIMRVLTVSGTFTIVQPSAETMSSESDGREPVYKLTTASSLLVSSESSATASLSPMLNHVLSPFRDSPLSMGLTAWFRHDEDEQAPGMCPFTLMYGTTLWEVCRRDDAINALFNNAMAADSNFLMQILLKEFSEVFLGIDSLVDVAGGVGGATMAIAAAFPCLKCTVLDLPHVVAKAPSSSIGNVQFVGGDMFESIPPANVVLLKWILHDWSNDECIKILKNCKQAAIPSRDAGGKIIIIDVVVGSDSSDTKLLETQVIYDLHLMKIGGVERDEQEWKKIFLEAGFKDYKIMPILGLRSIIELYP

Molecule | Relative Activity (%) of Recombinant SbOMT1 (SbOMT1 [3]) | Relative Activity (%) of Recombinant SbOMT3 (SbOMT3) | also measured
Oc1ccc(C=Cc2cc(O)cc(O)c2)cc1 [Resveratrol] |  |  | inhibition of human pathogens [1]: ineffective; inhibition of esca fungi (mycelial growth) [2]: did not inhibit mycelial growth; reaction of SbOMT2 with resveratrol (SbOMT2): did not react
C=CCc1ccc(O)c(OC)c1 [Eugenol] | 100 ± 5.2% | 3.2 ± 0.5% | 
CCCCCCc1cc(O)cc(O)c1 [5-n-Hexyl-resorcinol] | 0% | 79.4 ± 7.6% | 
CCCCCCCc1cc(O)cc(O)c1 [5-n-Heptyl-resorcinol] | 0% | 27.2 ± 1.3% | 
C=CC/C=C\C/C=C\CCCCCCCc1cc(O)cc(O)c1 [5-n-[8′, 11′, 14′]-Pentadecatrienyl-resorcinol] |  | 14.9 ± 4.3% | activity of SbOMT3 relative to that for 5-pentadecyl resorcinol (SbOMT3; higher than saturated side chain analogue of identical length): approximately 3 fold
O=C(O)/C=C/c1ccc(O)cc1 [p-Coumaric acid] | 0% | 3.5 ± 0.4% | 
CCCCc1cc(O)cc(O)c1 [5-n-Butyl-resorcinol] | 1.1 ± 0.1% | 42.0 ± 1.2% | 
Oc1cccc(O)c1 [Resorcinol] |  | 4.1 ± 0.1% | 
COc1ccc(O)cc1 [4-Methoxyphenol] | 8.3 ± 0.5% | 3.3 ± 0.6% | 
COc1cc(C)cc(O)c1 [Orcinol monomethyl ether] | 49.6 ± 1.6% | 3.5 ± 0.5% | 
CCCc1cc(O)cc(O)c1 [5-n-Propyl-resorcinol] | 2.2 ± 0.9% | 11.8 ± 0.2% | Kcat (SbOMT3; [7]): 1.9 s^−1 × 10^4; V max (SbOMT3; [7]): 15.6 nmol/mg/h; Km (SbOMT3): 1440 µM
CCCCCCCCCCCCCCCc1cc(O)cc(O)c1 [5-n-Pentadecyl-resorcinol] | <1.0% | 5.0 ± 0.4% | 
CCCCCCCCCc1cc(O)cc(O)c1 [5-n-Nonyl-resorcinol] | 0% | 3.3 ± 0.8% | 
COc1cc(/C=C/c2ccc(O)cc2)cc(OC)c1 [Pterostilbene] |  |  | cytotoxicity against cancer cell lines [4]: cytotoxic
COc1cc(/C=C/C(=O)O)ccc1O [Ferulic acid] | 3.1 ± 0.3% | 3.5 ± 0.6% | 
C[S+](CC[C@H](N)C(=O)[O-])C[C@H]1O[C@@H](n2cnc3c(N)ncnc32)[C@H](O)[C@@H]1O (stereo partly drawn) [SAM, S-Adenosyl-L-Methionine] |  |  | Km (SbOMT3; read-out: Km): 67.5 µM
SbOMT3 (Sorghum bicolor; DUP296-296) |  |  | Km (CCCCCCCc1cc(O)cc(O)c1): 23 µM; Vmax (CCCCCCCc1cc(O)cc(O)c1): 0.000173 µmol/min/mg; kcat (CCCCCCCc1cc(O)cc(O)c1): 0.00012 s⁻¹; kcat/Km (CCCCCCCc1cc(O)cc(O)c1): 5.2 M⁻¹ s⁻¹; Km (CCCCCCc1cc(O)cc(O)c1): 72 µM; Vmax (CCCCCCc1cc(O)cc(O)c1): 0.00042 µmol/min/mg; kcat (CCCCCCc1cc(O)cc(O)c1): 0.0003 s⁻¹; kcat/Km (CCCCCCc1cc(O)cc(O)c1): 4.2 M⁻¹ s⁻¹; Km (CCCCCc1cc(O)cc(O)c1): 152 µM; Vmax (CCCCCc1cc(O)cc(O)c1): 0.000653 µmol/min/mg; kcat (CCCCCc1cc(O)cc(O)c1): 0.00047 s⁻¹; kcat/Km (CCCCCc1cc(O)cc(O)c1): 3.1 M⁻¹ s⁻¹; Km (CCCCc1cc(O)cc(O)c1): 481 µM; Vmax (CCCCc1cc(O)cc(O)c1): 0.00055 µmol/min/mg; kcat (CCCCc1cc(O)cc(O)c1): 0.00039 s⁻¹; kcat/Km (CCCCc1cc(O)cc(O)c1): 0.81 M⁻¹ s⁻¹
COc1ccccc1O [Guaiacol] | 7.8 ± 0.5% | 3.2 ± 0.6% | 
O=C(O)/C=C/c1ccc(O)c(O)c1 [Caffeic acid] |  | 3.6 ± 0.6 3.6 ± 0.6% | 
Cc1cc(O)cc(O)c1 [Orcinol] | 1.3 ± 0.7% | 4.5 ± 0.1% | 
Oc1ccccc1O [Catechol] |  | 3.6 ± 0.6 3.6 ± 0.6% | 
COc1cccc(O)c1 [Resorcinol monomethyl ether] | 24.8 ± 1.1% | 3.2 ± 0.7% | 
CCCCCc1cc(O)cc(O)c1 [5-n-Pentyl-resorcinol] |  | 100 ± 2.2% | 
COc1ccc(C=Cc2cc(O)cc(O)c2)cc1 [3,5-dihydroxy-4′-methoxystilbene] |  |  | share of the product obtained from reaction of SbOMT1 with resveratrol (SbOMT1 [5]): 88%
B1 |  |  | Km [6]: 16.9 ± 1.2 µM; Vmax [6]: 0.00014 µmol/min/mg; kcat [6]: 0.0001 s⁻¹; kcat/Km [6]: 5.9 M⁻¹ s⁻¹
